# Test results published in patent publication USRE39061E1, “Pharmaceutical formulations comprising labdanes for the treatment of tumors or leukemias” (Medexis S.A., priority 1999, dated 2006).
# How the values were obtained:
# K562 = test: Cytotoxic activity, MTT method, 48 h; type: cell-based; conditions: for GI50 / TGI: K562, 48 h, MTT
# Protocol: (§1) Human cancer cell lines were used for in vitro drug testing. The cells were maintained as exponentially proliferating suspension cultures in RPMI-1640 medium (supplemented with 10% heat inactivated foetal calf serum, 2mM L-Glutamine and 50 μg/ml gentamycin and incubated at 37° C., in a humidified atmosphere with 5% CO2. Peripheral blood mononuclear cells (PBML) were also isolated from normal donors using the Ficoll-Hypaque method and cultured as the cancer cell lines.
# (§2) To determine the cytotoxicity, log-phase cells from each cell line, resting and activated PBML (1×10^6 cells/ml), were incubated with free compound or liposomal formulation for 48 h, in 96-well flat-bottomed micro plates.
# (§3) The initial inoculation densities for each cell line are presented in table (1) and were determined taking into account cell mass and growth rate (Monks A., Scudiero, D., Skehan P., Shomaker R., Pauli K., Vistica D., Hose C et al. Feasibility of a High-Flux Anticancer Drug screen using a diverse panel of cultured human tumor cell lines. JNCI 1991; 83(11): 757-766 Paul K D, Shomaker R H, Hodes L, Monks A, Scudiero D A, Rubinstein L., Plowman J and Boyd M R. Tumor Cell Lines: Development of Mean Graph and Compare Algorithm. JNCI 1989; 81(14): 1088-1092). Viability of the cells was assessed by trypan blue dye exclusion, at the beginning of the experiment and was always greater than 98%.
# (§4) Cells were added at the appropriate inoculation densities in 96-well micro titer plates and preincubated for 24 hours in a moist atmosphere of 5% CO2 in air at 37 °C, to allow stabilization prior to addition of the test compounds. To determine their activity, the free compound or liposomal formulation were added at the same time to each cell line. Cultures, where an equivalent amount of DMSO was added, used as controls. After the addition of the test agents the cells were cultured in micro plates for an additional 48 h under the same conditions. Each test agent was inoculated at five concentrations (10−4 to 10−8 M). The activity for each compound on each cell line was determined by the MTT method with modifications. Briefly 4 h before the end of the 48 h incubation period, MTT (3-(4,5-dimethylthiazol-2-yl)-2-5 diphenyl tetrazolium bromide, Sigma-Aldrich) dissolved in PBS (Phosphate buffered saline), was added in the cell cultures to give a final concentration of 50 μg/ml. At the end of the 48 h incubation period, DMSO was added to the wells and the optical density was measured with an ANTHOS HT II Microelisa reader, using a test wavelength of 550 nm.
# (§5) The data represent the means of experiments done in triplicates and were analyzed using a two-tailed Student's t-test.
# (§6) Three parameters GI50, TGI and LC50 were estimated using the MTT method. […] TGI is the concentration of the test agent where 100*(T−T0)/(C−TO)=0 and measures the cytostatic effect. Finally LC50 is the concentration of the drug where 100*(T−TO)/TO=−50 and measures the cytotoxic effect of the drug. At the above formulas used for the calculation of the three parameters, T is the optical density of the test well after a 48 h period of exposure to test compound; TO is the optical density at the time zero (when the drug is added) and C is the optical density of the control well (cells incubated for 48 h with no additives).
# (§7) The leukemic cell lines CCRF-CEM, MOLT4, HUT78 (T cells), RPMI 8226 (B cell line), HL60 (promyelocytic cell line), K562 (proerythrocytes) and the multi-drug resistant (MDR) cell lines: CCRF-CEM/C2, HL60/MXl and HL601MX2 were used. All cell lines were grown and tested for viability as described above. Free compounds and encapsulated (as described above) were tested according to the method described under cytotoxic activity (see Biological activity, above).
# RPMI 8226 = test: Cytotoxic activity, MTT method, 48 h; type: cell-based; conditions: for GI50 / TGI: RPMI 8226, 48 h, MTT
# Protocol: as §1, §2, §3, §4, §5, §6, §7
# HL60 = test: Cytotoxic activity, MTT method, 48 h; type: cell-based; conditions: for GI50 / TGI: HL60, 48 h, MTT
# Protocol: as §1, §2, §3, §4, §5, §6, §7
# CCRF-CEM = test: Cytotoxic activity, MTT method, 48 h; type: cell-based; conditions: for GI50 / TGI: CCRF-CEM, 48 h, MTT
# Protocol: as §1, §2, §3, §4, §5, §6, §7
# MOLT4 = test: Cytotoxic activity, MTT method, 48 h; type: cell-based; conditions: for GI50 / TGI: MOLT4, 48 h, MTT
# Protocol: as §1, §2, §3, §4, §5, §6, §7
# HUT78 = test: Cytotoxic activity, MTT method, 48 h; type: cell-based; conditions: for GI50 / TGI: HUT78, 48 h, MTT
# Protocol: as §1, §2, §3, §4, §5, §6, §7
# PBML (resting) = type: cell-based, human; conditions: for GI50 / TGI: normal PBML, resting, 48 h, MTT
# Protocol: as §1, §2, §4, §5, §6, §7
# PBML (stimulating) = type: cell-based, human; conditions: for GI50 / TGI: normal PBML, activated by 5 μg/ml PHA-P, 48 h, MTT
# Protocol: as §1, §2, §4, §5, §6, §7
# [1] = test system: leukemic cell lines (MEAN); test: Cytotoxic activity, MTT method, mean over the leukemic cell lines; type: cell-based; conditions: for GI50 / TGI: MEAN of the nine leukemic cell lines
# Protocol: as §1, §2, §3, §4, §5, §6, §7
# SF-268 (CNS cancer) = test: Growth percentages at 100 μM; type: cell-based, human
# Protocol: as §1, §4
# (§8) Three parameters GI50, TGI and LC50 were estimated using the MTT method. […] TGI is the concentration of the test agent where 100*(T−T0)/(C−TO)=0 and measures the cytostatic effect. Finally LC50 is the concentration of the drug where 100*(T−TO)/TO=−50 and measures the cytotoxic effect of the drug. […]
# MCF-7 (Breast cancer) = test: Growth percentages at 100 μM; type: cell-based, human
# Protocol: as §1, §4, §8
# NCI-H460 (Lung cancer) = test: Growth percentages at 100 μM; type: cell-based, human
# Protocol: as §1, §4, §8
# CCRF-CEM/C2 = type: cell-based; conditions: for GI50 / TGI: CCRF-CEM/C2 (MDR), 48 h, MTT
# Protocol: as §1, §2
# as §3, with “1088-1092).” for “1088-1092). Viability of the cells was assessed by trypan blue dye exclusion, at the beginning of the experiment and was always greater than 98%.”
# as §4, §5, §6, §7
# (§9) The Resistant Factor (RF) is defined as follows: GI50 of the MDR daughter cell line/GI50 of the parental cell line. The (−) represents a parental cell line more resistant than the daughter MDR line.
# HL60/MX1 = type: cell-based; conditions: for GI50 / TGI: HL60/MX1 (MDR), 48 h, MTT
# Protocol: as §1, §2
# as §3, with “1088-1092).” for “1088-1092). Viability of the cells was assessed by trypan blue dye exclusion, at the beginning of the experiment and was always greater than 98%.”
# as §4, §5, §6, §7, §9
# HL601/MX2 = type: cell-based; conditions: for GI50 / TGI: HL601/MX2 (MDR), 48 h, MTT
# Protocol: as §1, §2
# as §3, with “1088-1092).” for “1088-1092). Viability of the cells was assessed by trypan blue dye exclusion, at the beginning of the experiment and was always greater than 98%.”
# as §4, §5, §6, §7, §9
SMILES,CC50 (K562) [µM],GI50 (K562) [µM],TGI (K562) [µM],CC50 (RPMI 8226) [µM],GI50 (RPMI 8226) [µM],TGI (RPMI 8226) [µM],CC50 (HL60) [µM],GI50 (HL60) [µM],TGI (HL60) [µM],CC50 (CCRF-CEM) [µM],GI50 (CCRF-CEM) [µM],TGI (CCRF-CEM) [µM],CC50 (MOLT4) [µM],GI50 (MOLT4) [µM],TGI (MOLT4) [µM],CC50 (HUT78) [µM],GI50 (HUT78) [µM],TGI (HUT78) [µM],CC50 (PBML (resting)) [µM],GI50 (PBML (resting)) [µM],also measured
"CC(=CCO)CC[C@@H]1[C@@]2(C)CCCC(C)(C)[C@@H]2CC[C@@]1(C)O [Label-13-ene-8, 15 diol, labd-13-ene-8α,15-diol]",200,87.1,159,118,42.2,80.08,91.8,47.7,69.74,200,75.7,141.08,120,32.3,76.22,200,109,186,> 100,> 100,TGI (PBML (resting)): >>100 μM; CC50 (PBML (stimulating)): > 100 µM; GI50 (PBML (stimulating)): 66.2 µM; TGI (PBML (stimulating)): >>100 μM; CC50 [1]: 139 µM; GI50 [1]: 59.1 µM; TGI [1]: 104.48 µM; Growth Percentages (SF-268 (CNS cancer)): −88%; Growth Percentages (MCF-7 (Breast cancer)): −89%; Growth Percentages (NCI-H460 (Lung cancer)): −80%; CC50 (CCRF-CEM/C2): 108 µM; GI50 (CCRF-CEM/C2): 42.3 µM; TGI (CCRF-CEM/C2): 74.96 µM; CC50 (HL60/MX1): 108 µM; GI50 (HL60/MX1): 52.3 µM; TGI (HL60/MX1): 80.1 µM; CC50 (HL601/MX2): 102 µM; GI50 (HL601/MX2): 43.8 µM; TGI (HL601/MX2): 73.14 µM
"CC(=O)OCC=C(C)CC[C@@H]1[C@@]2(C)CCCC(C)(C)[C@@H]2CC[C@@]1(C)O [Label-13-ene-8, 15-yl acetate, labd-13-ene,8α-ol,15-yl acetate]",200,78.2,162.00,95.5,41.3,68.43,89.3,44.8,67.04,187,69.1,128.17,137,42.8,89.95,200,95.2,164.00,> 100,> 100,TGI (PBML (resting)): >>100 μM; CC50 (PBML (stimulating)): > 100 µM; GI50 (PBML (stimulating)): 65.9 µM; TGI (PBML (stimulating)): >>100 μM; CC50 [1]: 136 µM; GI50 [1]: 56.8 µM; TGI [1]: 100.94 µM; CC50 (CCRF-CEM/C2): 111 µM; GI50 (CCRF-CEM/C2): 46.8 µM; TGI (CCRF-CEM/C2): 78.83 µM; CC50 (HL60/MX1): 106 µM; GI50 (HL60/MX1): 53.9 µM; TGI (HL60/MX1): 80.14 µM; CC50 (HL601/MX2): 101 µM; GI50 (HL601/MX2): 38.8 µM; TGI (HL601/MX2): 69.90 µM
"C=C[C@](C)(O)CC[C@@H]1[C@@]2(C)CCCC(C)(C)[C@@H]2CC[C@@]1(C)O [Label-14-ene-8, 13 diol, labd-14-ene-8,13-diol]",79.3,35.6,57.45,70.7,14.9,42.84,80,41.5,60.72,85,35,60.00,77.7,31.6,54.66,78.5,33.7,56.09,93.1,34.6,TGI (PBML (resting)): 63.8 µM; CC50 (PBML (stimulating)): 89 µM; GI50 (PBML (stimulating)): 33.1 µM; TGI (PBML (stimulating)): 61.0 µM; CC50 [1]: 78.3 µM; GI50 [1]: 32.9 µM; TGI [1]: 55.58 µM; CC50 (CCRF-CEM/C2): 75.8 µM; GI50 (CCRF-CEM/C2): 29.1 µM; TGI (CCRF-CEM/C2): 52.41 µM; CC50 (HL60/MX1): 80.9 µM; GI50 (HL60/MX1): 42.9 µM; TGI (HL60/MX1): 61.90 µM; CC50 (HL601/MX2): 76.8 µM; GI50 (HL601/MX2): 31.4 µM; TGI (HL601/MX2): 54.12 µM
